Results: patent US4109011A, “Insecticide carbamates of N-(polychloroallyl)-amino-phenols” (priority 1975, dated 1978)
Read-outs that look alike come from different tables or passages of the source.

How the values were obtained:
[1] = system: Leptinotarsa Decimlineata; test: Biological activity on Leptinotarsa decemlineata larvae, sprayed potato seedlings; type: in vivo; conditions: read-out: Percent of Mortality
Text: Biological Activity on Leptinotarsa Decimlineata Coleoptera
Potato seedlings cultivated in pots were infested with 4-day old larvae and sprayed with an aqueous dispersion of the compounds according to this invention and Aminocarb as a comparison at doses of […]; respectively. The mortality percentage of the control, untreated seedlings, was zero.
(§1) To show the variation in activity from one compound to another, depending on the species used, the activities of compounds according to this invention were investigated at different concentrations, expressed as percent of active principle, on various infesting species. The mortality percentage was computed in the same way as in the preceding examples.

[2] = Acute toxicity on white rats, administered orally; conditions: rat, in vivo, po
[3] = system: Culex Pipiens; test: Biological activity on Culex pipiens (mosquito larvae in aqueous dispersion); type: in vivo; conditions: 24 h, read-out: Percent of Mortality
Text: Biological Activity on Culex Pipiens (Diptera)
Mosquito larvae of the third and fourth ages were introduced into glass pots containing an aqueous dispersion of the compounds shown at 2 ppm and 0.2 ppm.
as §1

[4] = system: Leptinotarsa Decimlineata; test: Biological activity on Leptinotarsa decemlineata larvae, sprayed potato seedlings; type: in vivo; conditions: read-out: Percent of Mortality; remark: listed apart in the source
[5] = system: Musca Domestica; test: Biological activity on Musca domestica, topical application to adults; type: in vivo; conditions: 24 h, read-out: Percent of Mortality
Procedure: Biological Activity on Musca Domestica (Diptera)
Four day old adults were treated by topical application through a microsyringe with 1 mm^3 of an acetonic solution of the compounds shown in such concentrations that they received doses of 5γ/insect; 2γ/insect; 0.5γ/insect of active principle. The mortality percentage 24 hours after the treatment is reported in Table 8 (mortality of insects treated with 1 mm^3 of acetone = 0).

[6] = system: Spodoptera Littoralis; test: Biological activity on Spodoptera littoralis larvae, sprayed cut tobacco leaves; type: in vivo; conditions: 0.1 percent, larvae, 48 hours, read-out: Percent of Mortality
Text: Biological Activity on Spodoptera Littoralis (Lepidoptera)
Cut tobacco leaves were sprayed with a 0.1% aqueous dispersion of compounds according to the present invention, shown in Table 12. After drying, the leaves were infested with 5-day old lepidopter larvae. The mortality percentage of the control was zero.
as §1

[7] = system: Pieris Brassicae; test: Biological activity on Pieris brassicae larvae, sprayed cut cauliflower leaves; type: in vivo; conditions: 0.1 percent, larvae, read-out: Percent of Mortality
Text: Biological Activity on Pieris Brassicae (Lepidoptera)
Cut leaves of cauliflower were sprayed with an aqueous dispersion of compound according to this invention at a 0.1% concentration. After drying, they were infested with 5-day old larvae. The mortality percentage of the control, untreated leaves, was zero.
as §1

[8] = system: Pieris Brassicae; test: Persistence of insecticidal activity in the field, Pieris brassicae on cauliflower plants; type: in vivo; conditions: 0.5 percent; for mortality at 0.5 %: read-out: Mortality Percent of Pieris Brassicae Larvae
Text: The persistence of insecticidal activity in the field using the insect Pieris brassicae was examined as follows:
Cauliflower plants grown under natural conditions in the field were sprinkled with an aqueous suspension of compounds according to this invention identified hereinabove as M 7361 and M 8157. For purposes of comparison, cauliflower plants were sprinkled with an aqueous suspension of a compound according to U.S. Pat. No. 3,819,678, identified hereinabove as M 7481.
After the respective time periods shown in Table 15, leaves of the sprinkled plants were picked and brought to the laboratory where they were infested with 10-day old larvae of Pieris brassicae and then kept under observation. The percent of mortality of the insects was determined 48 hours after infestation in all cases. The percent mortality of the control, unsprinkled cauliflower leaves, was zero.

[9] = system: Spodoptera Littoralis; test: Persistence of insecticidal activity in the field, Spodoptera littoralis on Ricinus plants; type: in vivo; conditions: one percent, read-out: Mortality Percent of Spodoptera Littoralis Larvae
Text: The persistence of insecticidal activity in the field using the insect Spodoptera littoralis was examined as follows:
Ricinus plants grown in the field under natural conditions were sprinkled with an aqueous suspension of the insecticidal compounds according to this invention designated hereinabove as M 7361 and M 8157. For purposes of comparison, an aqueous suspension of each of M 7481 and M 7488, according to U.S. Pat. No. 3,819,678 and identified above, was sprinkled on similarly grown Ricinus plants.
After the time periods shown in Table 16, leaves of the sprinkled plants were picked and brought to the laboratory where they were infested with 10-day old larvae of Spodoptera littoralis and then kept under observation. The mortality percent of the control unsprinkled leaves was zero.

[10] = system: Meloidogyne Incognita; test: Biological activity on Meloidogyne incognita (nematocide activity, galls on tomato seedlings); type: in vivo; conditions: vs control
Procedure: Biological Activity on Meloidogyne Incognita (Nematoda)
A 1:1 mixture of field earth and sand infested by new-born larvae and eggs of the nematode was treated by uniformly mixing with a hydroacetone dispersion (20% by vol. of acetone) at a concentration of 0.1% and of 0.02% of the compounds under test so as to get soil samples containing 100 ppm and 20 ppm, respectively, of active principle. The soil was introduced into plastic pots and after 5 days, 5 tomato seedlings about 15 cm high were transplanted into each of them. Fourteen days after transplantation, the roots of the seedlings extracted from the soil were examined in order to determine the degree of infestation by counting the galls which had formed.
The nematocide activity is expressed in Table 13 as the percentage of infestation reduction with respect to the control (seedlings transplanted into the same soil treated with a dispersion free from active principle).

[11] = system: Macrosiphum Euphorbiae; test: Biological activity on Macrosiphum euphorbiae (aphides), potato seedlings sprayed with aqueous dispersion; type: in vivo; conditions: 24 h, read-out: Mortality Percent
Procedure: Biological Activity on Macrosiphum Euphorbiae (Aphides)
Potato seedlings, cultivated in pots, were infested with adult aphide females and, after a few hours, were sprayed with an aqueous dispersion of the compounds listed in Table 6. The mortality percentage was determined 24 hours after the treatment (on control non-treated seedlings, the mortality percentage was 0).
as §1

[12] = 120 h, 5 days after field treatment
[13] = 336 h, 14 days after field treatment

CNC(=O)Oc1ccc(C)c(NCC(Cl)=C(Cl)Cl)c1 [M 6738]
mortality at 0.1 % [1]: 100% | LD50 [2]: 100 mg/kg | mortality at 2 ppm [3]: 100% | mortality at 0.01 % [4]: 100% | mortality at 2 µg/insect [5]: 100% | mortality at 5 µg/insect [5]: 100%

CNC(=O)Oc1cccc(NCC(Cl)=C(Cl)Cl)c1 [M 6740]
mortality at 0.1 % [1]: 100% | mortality at 2 ppm [3]: 100% | mortality at 0.01 % [4]: 100%

CNC(=O)Oc1ccc(NCC=C(Cl)Cl)c(C)c1 [M 6432]
mortality at 0.1 % [6]: 100% | mortality at 0.1 % [7]: 100%

CNC(=O)Oc1cc(C)c(NCC(Cl)=C(Cl)Cl)c(C)c1 [M 8157]
period for which insecticidal activity is fully retained in the field [8]: at least 22 days | mortality at 0.5 % ([8]; 2 hours after field treatment): 100% | mortality at 0.5 % [8, 12]: 100% | mortality at 0.5 % ([8]; 216 h, 9 days after field treatment): 100% | mortality at 0.5 % [8, 13]: 100% | mortality at 0.5 % ([8]; 408 h, 17 days after field treatment): 100% | mortality at 0.5 % ([8]; 528 h, 22 days after field treatment): 100% | mortality at 1 % [9, 12]: 100% | mortality at 1 % ([9]; 264 h, 11 days after field treatment): 100% | mortality at 1 % [9, 13]: 100% | mortality at 1 % ([9]; 432 h, 18 days after field treatment): 100% | mortality at 1 % ([9]; 600 h, 25 days after field treatment): 100% | mortality at 1 % ([9]; 2 hours after field treatment): 100%

CNC(=O)Oc1cccc(NCC=C(Cl)Cl)c1 [M 6370]
Reduction of Infestation ([10]; 20 ppm in soil): 100% | Reduction of Infestation ([10]; 100 ppm in soil): 100% | mortality at 0.1 % [1]: 100% | mortality at 0.01 % [11]: 100% | LD50 [2]: 100 mg/kg | mortality at 0.1 % [7]: 90% | mortality at 0.2 ppm [3]: 17% | mortality at 2 ppm [3]: 94% | mortality at 0.01 % [4]: 100%
